Data: US9718825B2, “N-(4-(azaindazol-6-yl)-phenyl)-sulfonamides and their use as pharmaceuticals” (priority 2013, dated 2017)

How the values were obtained:
[1] = system: SGK-1 dependent phosphorylation of GSK3beta in U2OS cells; test: SGK-1 dependent phosphorylation of GSK3beta in U2OS cells overexpressing recombinant SGK-1 and GSK3beta; format: cell-based, human; details: U2OS cells, 6 h incubation, ratio of phosphorylated GSK3beta to total GSK3beta; read-out: IC50 values for inhibition of SGK-1 dependent phosphorylation of GSK3beta in U2OS cells
[2] = target: recombinant human SGK-1 enzyme (Homo sapiens, UniProt O00141); test: Enzymatic activity assay: SGK-1 substrate peptide phosphorylation (Caliper lab-chip mobility shift); format: biochemical; details: peptide substrate 1 μM, ATP 10 μM, 60 min at 37° C., read-out: IC50 values for inhibition of SGK-1 enzymatic activity
Sequence of recombinant human SGK-1 enzyme (O00141 whole entry, looked up): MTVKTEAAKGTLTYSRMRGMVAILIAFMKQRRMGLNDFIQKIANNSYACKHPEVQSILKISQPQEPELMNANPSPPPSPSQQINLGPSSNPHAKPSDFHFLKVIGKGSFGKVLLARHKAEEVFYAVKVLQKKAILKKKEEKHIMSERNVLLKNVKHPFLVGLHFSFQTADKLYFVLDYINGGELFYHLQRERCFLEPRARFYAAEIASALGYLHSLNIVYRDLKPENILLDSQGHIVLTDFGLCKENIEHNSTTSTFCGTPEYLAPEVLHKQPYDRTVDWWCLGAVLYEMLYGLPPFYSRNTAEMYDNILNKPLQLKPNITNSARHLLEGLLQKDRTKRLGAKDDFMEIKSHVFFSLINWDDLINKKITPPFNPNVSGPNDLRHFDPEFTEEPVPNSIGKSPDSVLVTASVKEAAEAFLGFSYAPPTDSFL

Compound	IC50 [1] [nM]	IC50 [2] [nM]
Cc1ccc(C#N)c(S(=O)(=O)Nc2ccc(-c3nc(NC4CCC(O)CC4)c4c(C)n[nH]c4n3)cc2)c1 (centres unmarked) [Example 98]	1700	1.7
Cc1ccc(F)c(S(=O)(=O)Nc2ccc(-c3ncc4c(N)n[nH]c4n3)cc2)c1 [Example 455]	390	< 1.5
Cc1ccc(C#N)c(S(=O)(=O)Nc2ccc(-c3nc(OCC(C)C)c4c(N)n[nH]c4n3)cc2)c1 [Example 333]	1300	14
Cc1nc(-c2ccc(NS(=O)(=O)c3ccc(F)cc3Cl)cc2)nc2[nH]nc(N)c12 [Example 164]	600	40
COc1ccc(Cl)c(S(=O)(=O)Nc2ccc(-c3nc(OC)c4cn[nH]c4n3)cc2)c1 [Example 143]	100	10
Cc1ccc(C#N)c(S(=O)(=O)Nc2ccc(-c3nc(OC4CCNCC4F)c4c(C)n[nH]c4n3)cc2)c1 (centres unmarked) [Example 300]	92	1.1
O=S(=O)(Nc1ccc(-c2nc(N3CC(O)C3)c3cn[nH]c3n2)cc1F)c1cc(Cl)ccc1Cl [Example 437]	1800	100
Nc1n[nH]c2nc(-c3ccc(NS(=O)(=O)c4ccccc4F)cc3)ncc12 [Example 517]	170	420
CC(C)COc1nc(-c2ccc(NS(=O)(=O)c3ccccc3F)cc2)nc2[nH]nc(N)c12 [Example 331]	240	290
COc1ccc(Cl)c(S(=O)(=O)Nc2ccc(-c3nc(OC4CCN(CCF)CC4)c4c(C)n[nH]c4n3)cc2)c1 [Example 341]	63	4.9
Cc1nc(-c2ccc(NS(=O)(=O)c3cc(F)c(F)c(F)c3)cc2)nc2[nH]nc(N)c12 [Example 165]	970	110
CC(C)(O)CCCOc1nc(-c2ccc(NS(=O)(=O)c3cc(Cl)ccc3F)cc2)nc2[nH]ncc12 [Example 86]	1800	11
Cc1nc(-c2ccc(NS(=O)(=O)c3cc(Cl)ccc3C#N)cc2)nc2[nH]nc(N3CCCC4(COC4)C3)c12 [Example 499]	8800	8.9
O=S(=O)(Nc1ccc(-c2nc(OCC3CNCCO3)c3cn[nH]c3n2)cc1)c1cc(F)ccc1F (centres unmarked) [Example 311]	92	240
COc1ccc(F)c(S(=O)(=O)Nc2ccc(-c3nc(OCC(F)(F)F)c4c(N)n[nH]c4n3)cc2)c1 [Example 197]	65	3
COc1ccc(Cl)c(S(=O)(=O)Nc2ccc(-c3nc(OCC(F)(F)F)c4c(N)n[nH]c4n3)cc2)c1 [Example 194]	100	2.3
O=S(=O)(Nc1ccc(-c2nc(OCC3CNC3)c3cn[nH]c3n2)cc1)c1cc(Cl)ccc1F [Example 198]	510	< 1.5
CC(C)(CO)COc1nc(-c2ccc(NS(=O)(=O)c3cc(Cl)ccc3F)cc2)nc2[nH]ncc12 [Example 57]	500	8.3
Nc1n[nH]c2nc(-c3ccc(NS(=O)(=O)c4cc(F)c(F)cc4F)cc3)ncc12 [Example 516]	640	300
CC(C)COc1nc(-c2ccc(NS(=O)(=O)c3cccc(Cl)c3F)cc2)nc2[nH]nc(N)c12 [Example 327]	430	420
Cc1ccc(F)c(S(=O)(=O)Nc2ccc(-c3nc(OCC4CNC(=O)C4)c4cn[nH]c4n3)cc2)c1 (centres unmarked) [Example 107]	3700	2.5

Compound	IC50 [1] [nM]	IC50 [2] [nM]
COc1nc(-c2ccc(NS(=O)(=O)c3cc(C)ccc3C#N)cc2)nc2[nH]ncc12 [Example 135]	1900	12
Cc1n[nH]c2nc(-c3ccc(NS(=O)(=O)c4cc(Cl)ccc4Cl)cc3)nc(OC3CCN(CCF)CC3)c12 [Example 342]	280	6
Nc1n[nH]c2cc(-c3ccc(NS(=O)(=O)c4cc(Cl)ccc4F)cc3)ncc12 [Example 559]	390	19
Cc1nc(-c2ccc(NS(=O)(=O)c3cc(Cl)ccc3Cl)cc2)nc2[nH]ncc12 [Example 76]	3000	5.7
O=S(=O)(Nc1ccc(-c2nc(O[C@@H]3CCC[C@H]3O)c3cn[nH]c3n2)cc1)c1cc(Cl)ccc1F [Example 87]	4100	6.8
Cc1ccc(F)c(S(=O)(=O)Nc2ccc(-c3nc(OCCCC(N)=O)c4cn[nH]c4n3)cc2)c1 [Example 112]	3900	3.3
COc1ccc(Cl)c(S(=O)(=O)Nc2ccc(-c3nc(OCC(C)C)c4c(N)n[nH]c4n3)cc2)c1 [Example 332]	190	27
COCCc1nc(-c2ccc(NS(=O)(=O)c3cc(Cl)ccc3Cl)cc2)nc2[nH]nc(N)c12 [Example 505]	620	47
COc1nc(-c2ccc(NS(=O)(=O)c3cc(Cl)ccc3F)cc2)nc2[nH]ncc12 [Example 136]	1700	41
Cc1ccc(C#N)c(S(=O)(=O)Nc2ccc(-c3nc(CCCCl)c4cn[nH]c4n3)cc2)c1 [Example 146]	11000	47
COc1ccc(C#N)c(S(=O)(=O)Nc2ccc(-c3nc(OC4CCC(O)CC4)c4cn[nH]c4n3)cc2)c1 (centres unmarked) [Example 134]	640	< 1.5
Cc1nc(-c2ccc(NS(=O)(=O)c3cc(F)cc(F)c3Cl)cc2)nc2[nH]nc(N)c12 [Example 479]	280	16
NCCCOc1nc(-c2ccc(NS(=O)(=O)c3cccc(Cl)c3Cl)cc2)nc2[nH]ncc12 [Example 64]	560	4.2
COc1ccc(F)c(S(=O)(=O)Nc2ccc(-c3nc(OCC4CNCCO4)c4c(C)n[nH]c4n3)cc2)c1 (centres unmarked) [Example 295]	25	2.6
Cc1ccc(C#N)c(S(=O)(=O)Nc2ccc(-c3nc(OCC(F)(F)F)c4c(N)n[nH]c4n3)cc2)c1 [Example 193]	160	2
COc1ccc(F)c(S(=O)(=O)Nc2ccc(-c3nc(OC4CCNCC4F)c4c(C)n[nH]c4n3)cc2)c1 (centres unmarked) [Example 302]	86	1.9
Cc1ccc(C#N)c(S(=O)(=O)Nc2ccc(-c3nc(OCC4CNCCO4)c4c(C)n[nH]c4n3)cc2)c1 (centres unmarked) [Example 293]	630	3.2
O=S(=O)(Nc1ccc(-c2nc(SCCCO)c3cn[nH]c3n2)cc1)c1cc(Cl)ccc1Cl [Example 89]	100	< 1.5
Cc1n[nH]c2nc(-c3ccc(NS(=O)(=O)c4cc(Cl)ccc4F)cc3)nc(OCCCN)c12 [Example 209]	100	< 1.5
Cc1ccc(C#N)c(S(=O)(=O)Nc2ccc(-c3nc(OC4CNC4)c4cn[nH]c4n3)cc2)c1 [Example 188]	900	3.4
COc1nc(-c2ccc(NS(=O)(=O)c3cc(Cl)ccc3C#N)cc2)nc2[nH]ncc12 [Example 138]	3500	44

Compound	IC50 [1] [nM]	IC50 [2] [nM]
Cc1n[nH]c2nc(-c3ccc(NS(=O)(=O)c4cc(Cl)ccc4F)cc3)nc(OC3CCCNC3)c12 (centres unmarked) [Example 339]	45	1.3
Cc1nc(-c2ccc(NS(=O)(=O)C3=C(Cl)SCC(Cl)=C3)cc2)nc2[nH]nc(N)c12 [Example 175]	520	19
COc1ccc(F)c(S(=O)(=O)Nc2ccc(-c3nc(OC4CCC(O)CC4)c4c(C)n[nH]c4n3)cc2)c1 (centres unmarked) [Example 129]	170	< 1.5
Cc1n[nH]c2nc(-c3ccc(NS(=O)(=O)c4cc(Cl)ccc4Cl)cc3)nc(OC3CCC(O)CC3)c12 (centres unmarked) [Example 214]	130	69
Cc1ccc(F)c(S(=O)(=O)Nc2ccc(-c3nc(OCCCN)c4cn[nH]c4n3)cc2)c1 [Example 204]	130	< 1.5
NCCCOc1nc(-c2ccc(NS(=O)(=O)c3cc(Cl)ccc3F)cc2)nc2[nH]ncc12 [Example 62]	450	< 1.2
O=S(=O)(Nc1ccc(-c2nc(N3CCNCC3)c3cn[nH]c3n2)cc1)c1cccc(Cl)c1Cl [Example 15]	870	< 1.2
Cc1nc(-c2ccc(NS(=O)(=O)C3=CSCC=C3Br)cc2)nc2[nH]nc(N)c12 [Example 173]	600	330
Cc1n[nH]c2nc(-c3ccc(NS(=O)(=O)c4cc5c(cc4Cl)OCCO5)cc3)ncc12 [Example 103]	9100	2.3
Cc1nc(-c2ccc(NS(=O)(=O)c3cc(F)c(F)cc3Cl)cc2)nc2[nH]nc(N)c12 [Example 170]	510	54
COc1ccc(C#N)c(S(=O)(=O)Nc2ccc(-c3ncc4c(N)n[nH]c4n3)cc2)c1 [Example 522]	290	2.4
O=S(=O)(Nc1ccc(-c2nc(C3CC3)c3cn[nH]c3n2)cc1F)c1cc(Cl)ccc1F [Example 443]	320	94
COc1ccc(C#N)c(S(=O)(=O)Nc2ccc(-c3nc(OCC(C)C)c4c(N)n[nH]c4n3)cc2)c1 [Example 336]	190	5.5
Cc1ccc(F)c(S(=O)(=O)Nc2ccc(-c3nc(OCC4CNCCO4)c4c(C)n[nH]c4n3)cc2)c1 (centres unmarked) [Example 288]	61	2.3
COc1ccc(Cl)c(S(=O)(=O)Nc2ccc(-c3nc(OC4CCC(O)CC4)c4c(C)n[nH]c4n3)cc2)c1 (centres unmarked) [Example 102]	380	1.7
Cc1nc(-c2ccc(NS(=O)(=O)c3cccc(F)c3C#N)cc2)nc2[nH]nc(N)c12 [Example 474]	11000	12
COc1ccc(F)c(S(=O)(=O)Nc2ccc(-c3nc(OCCCN)c4cn[nH]c4n3)cc2)c1 [Example 219]	230	< 1.5
COc1ccc(Cl)c(S(=O)(=O)Nc2ccc(-c3nc(O[C@@H]4CCC(O)C4)c4cn[nH]c4n3)cc2)c1 (some centres unmarked) [Example 91]	180	< 1.5
Nc1n[nH]c2nc(-c3ccc(NS(=O)(=O)c4cc(Cl)ccc4Cl)cc3)nc(OCC(F)(F)F)c12 [Example 195]	210	5.4
